In PMC7477548, “Prediction of an MMP-1 inhibitor activity cliff using the SAR matrix approach and its experimental validation” (Scientific Reports, 2020):

Assays:
[1] = target: T1, MMP-1 (Homo sapiens, UniProt P03956); test: MMP-1 inhibitory colorimetric assay (MMP1 Inhibitor Screening Assay Kit ab139443); assay type: biochemical; details: for inhibitory activity against MMP-1 in words: at a 100 µM concentration; for IC50: colorimetric assay, A412nm, mean ± standard deviation of triplicated samples
T1 construct: purchased abcam ab139443
T1 sequence (P03956 100-269 limits assumed): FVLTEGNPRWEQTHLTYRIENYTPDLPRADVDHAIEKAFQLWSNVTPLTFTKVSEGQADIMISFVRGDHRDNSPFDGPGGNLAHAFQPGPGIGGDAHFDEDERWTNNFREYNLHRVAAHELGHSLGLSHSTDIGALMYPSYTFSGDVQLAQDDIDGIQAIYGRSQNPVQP
Protocol: We next examined the inhibitory activity of the synthesized compounds 3–6 against MMP-1 using a colorimetric assay. This assay was performed using the MMP-1 Inhibitor Screening Assay Kit (ab139443) according to the manufacturer’s protocols. The reaction was started by the addition of the diluted MMP-1 substrate. The continuous absorbance of the wells was measured at A412nm using a microplate reader.
MMP-1 inhibitory assay was performed using the assay kit according to the manufacturer’s protocol. A 96-well clear microplate (1/2 volume), 30.6 U/µL of MMP-1 enzyme, MMP-1 substrate (25 mM in DMSO), and colorimetric assay buffer were contained in MMP1 Inhibitor Screening Assay Kit (ab139443, abcam). 2-[(2-Methylpropyl)[(4-methoxyphenyl)sulfonyl]amino]acetohydroximic acid (NNGH) was used as a positive control of an MMP-1 inhibitor. The MMP-1 substrate and DMSO solution of compound were thawed at room temperature. A compound (10 mM in DMSO) was diluted at 1/200 in assay buffer and brought to 37 °C. Also, the MMP-1 substrate was diluted at 1/200 in assay buffer and brought to 37 °C. The MMP-1 enzyme was diluted at 1/25 in assay buffer and warmed up to 37 °C as soon as the assay was started. After the assay buffer was pipetted appropriately into each well, 20 µL of the prepared MMP-1 enzyme solution and the desired concentration of test inhibitor solutions (20 µL; final concentrations: 0.1–100 µM) were added to the wells. The microplate was incubated for 30 min at 37 °C. The 10 µL of the prepared MMP-1 substrate solution was added into each well to allow the reaction start. The absorbance of the wells was measured at A412nm using a microplate reader every 1 min, and data analysis was performed.

IC50 [1]	melting point	fold higher MMP-1 inhibitory activity (fold lower IC50) of compound 4 relative to compound 3 ([1]; ratio of IC50 values, compound 3 vs compound 4)	Structure (SMILES)	inhibitory activity against MMP-1 in words [1]
0.18 ± 0.03 µM	–	60 fold	C[C@H](C(=O)NO)N1CC[C@@](C)(c2ccc(C(F)(F)F)cc2)C1=O [Compound 4, (R)-N-hydroxy-2-((S)-3-methyl-2-oxo-3-(4-(trifluoromethyl)phenyl)pyrrolidin-1-yl)propanamide]	–
1.54 ± 0.08 µM	–	–	C[C@H](C(=O)NO)N1CC[C@@](C)(c2ccccc2)C1=O [Compound 5, (R)-N-hydroxy-2-((S)-3-methyl-2-oxo-3-phenylpyrrolidin-1-yl)propanamide]	–
11.1 ± 0.5 µM	–	–	C[C@H](C(=O)NO)N1CC[C@@](C)(c2cccc(C(F)(F)F)c2)C1=O [Compound 6, (R)-N-hydroxy-2-((S)-3-methyl-2-oxo-3-(3-(trifluoromethyl)phenyl)pyrrolidin-1-yl)propanamide]	–

More lines, now with the values behind:

Structure (SMILES)	IC50 [1]	melting point	fold higher MMP-1 inhibitory activity (fold lower IC50) of compound 4 relative to compound 3 ([1]; ratio of IC50 values, compound 3 vs compound 4)	inhibitory activity against MMP-1 in words [1]
C[C@H](C(=O)NO)N1CC[C@](C)(c2ccc(-c3ccccc3)cc2)C1=O [3′, (R)-2-((R)-3-([1,1′-biphenyl]-4-yl)-3-methyl-2-oxopyrrolidin-1-yl)-N-hydroxypropanamide]	> 100 µM	137 to 138 °C	–	did not display significant inhibitory activity
C[C@H](C(=O)NO)N1CC[C@](C)(c2ccc(C(F)(F)F)cc2)C1=O [4′, (R)-N-hydroxy-2-((R)-3-methyl-2-oxo-3-(4-(trifluoromethyl)phenyl)pyrrolidin-1-yl)propanamide]	> 100 µM	105 to 107 °C	–	did not display significant inhibitory activity
C[C@H](C(=O)NO)N1CC[C@@](C)(c2ccc(-c3ccccc3)cc2)C1=O [Compound 3, (R)-2-((S)-3-([1,1′-biphenyl]-4-yl)-3-methyl-2-oxopyrrolidin-1-yl)-N-hydroxypropanamide]	11.5 ± 1.3 µM	160 to 162 °C	–	–
